Data on 22 molecules can be found in US10683292B2, “Purine and 3-deazapurine analogues as choline kinase inhibitors” (NERVIANO MEDICAL SCIENCES S.R.L., priority 2016, dated 2020).

Bounds are passed on as bounds.

Test [1] concerns the target T1, Δ49N-hChoKα (Homo sapiens, UniProt P35790).
T1 construct: cDNA fragment 362-1534, corresponding to aminoacids 50-457; GST (N, cleaved yes); Prescission Protease recognition site (N, cleaved yes); made in house; host or cells: Escherichia coli BL21pLysS (DE3)
Nature of the test: Biochemical kinase inhibition assay (Kinase-Glo Luminescent Kinase Assay) on Δ49N-hChoKα. To be noted: ATP 5 μM, choline 5 μM, 60 minutes at rt; read-out: IC50 ChoKα.
Procedure: (§1) The biochemical activity of compounds against Δ49N-ChoKα and ChoKβ FL were determined using the Kinase-Glo™ Luminescent Kinase Assay (Promega cat. V6711).
(§2) Compounds were 3-fold serially diluted from 10 to 0.0005 μM, then incubated for 60 minutes at rt in the presence of ATP 5 μM, choline (5 μM for ChoKα and 20 μM for ChoKβ) and enzyme in a final volume of 19 μL of kinase buffer (50 mM Hepes pH 7.5, 10 mM MgCl2, 1 mM DTT, 3 μM Na3VO4 and 0.2 mg/mL BSA). The final concentration of DMSO was 1%.
(§3) At the end of the incubation, an amount of 19 μL of KinaseGlo Reagent was added to each well to stop the reaction and after 30 minutes the luminescence signal was measured using ViewLux reader (Perkin Elmer).
(§4) The data per each molecule are analyzed by an internally customized version of the SW package “Assay Explorer” which provides sigmoidal fittings of the ten-dilution curves for IC50 determination using a 4 parameter logistic equation: y=bottom+(top−bottom)/(1+10^((log IC50−x)*slope)) where x is the logarithm of the inhibitor concentration, y is the response; y starts at bottom and goes to top with a sigmoid shape.

The target of test [2] is T2, hChoKβ FL (Homo sapiens, UniProt Q9Y259).
T2 construct: hChoKβ full length (FL), corresponding to aminoacids 2-395; GST (N, cleaved yes); Prescission Protease recognition site (N, cleaved yes); made in house; host or cells: Escherichia coli BL21pLysS (DE3)
T2 sequence (Q9Y259 2-395): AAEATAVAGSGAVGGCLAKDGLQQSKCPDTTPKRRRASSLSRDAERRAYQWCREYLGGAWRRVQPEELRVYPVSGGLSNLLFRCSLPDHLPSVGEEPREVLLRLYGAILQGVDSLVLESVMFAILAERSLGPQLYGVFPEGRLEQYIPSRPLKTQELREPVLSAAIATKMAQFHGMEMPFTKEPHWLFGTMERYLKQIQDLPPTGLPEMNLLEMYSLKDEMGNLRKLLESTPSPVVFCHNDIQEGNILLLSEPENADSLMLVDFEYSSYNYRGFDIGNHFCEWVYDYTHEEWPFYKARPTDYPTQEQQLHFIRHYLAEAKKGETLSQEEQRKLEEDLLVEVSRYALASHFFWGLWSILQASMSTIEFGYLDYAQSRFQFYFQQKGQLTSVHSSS
Nature of the test: Biochemical kinase inhibition assay (Kinase-Glo Luminescent Kinase Assay) on hChoKβ FL. To be noted: ATP 5 μM, choline 20 μM, 60 minutes at rt; read-out: IC50 ChoKβ. For orientation: In Kinase-Glo more light means more ATP remaining.
Procedure: as §1, §2, §3, §4

Broadly, the IC50 is the concentration that gives 50% inhibition.

T1 sequence (P35790 50-457, stated change not applied): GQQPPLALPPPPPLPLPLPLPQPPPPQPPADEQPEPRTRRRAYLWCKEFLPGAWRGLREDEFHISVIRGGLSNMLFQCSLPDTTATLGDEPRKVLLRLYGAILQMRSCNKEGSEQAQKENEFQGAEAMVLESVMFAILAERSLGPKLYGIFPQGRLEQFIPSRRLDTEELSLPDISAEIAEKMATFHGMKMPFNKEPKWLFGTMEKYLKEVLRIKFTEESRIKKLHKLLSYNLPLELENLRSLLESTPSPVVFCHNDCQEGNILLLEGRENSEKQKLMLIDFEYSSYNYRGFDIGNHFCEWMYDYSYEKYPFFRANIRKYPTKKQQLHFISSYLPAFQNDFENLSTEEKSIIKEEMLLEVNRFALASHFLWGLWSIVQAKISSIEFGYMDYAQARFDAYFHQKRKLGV

Regarding `COc1cccc(NC(=O)[C@H]2CC[C@@H](n3cnc4c(N)nc(-c5ccnc(F)c5)nc43)CC2)c1` [cpd 15, cis-4-[6-amino-2-(2-fluoropyridin-4-yl)-9H-purin-9-yl]-N-(3-methoxyphenyl)cyclohexanecarboxamide], the IC50 in test [1] was found to be 419 nM. For the molecule `Cc1csc(NC(=O)[C@H]2CC[C@@H](n3cnc4c(N)nc(-c5cccc(C(=O)Nc6ccc(CN7CCC(N(C)C)CC7)cc6)c5)nc43)CC2)n1` [cpd 85, 3-(6-amino-9-{cis-4-[(4-methyl-1,3-thiazol-2-yl)carbamoyl]cyclohexyl}-9H-purin-2-yl)-N-(4-{[4-(dimethylamino)piperidin-1-yl]methyl}phenyl)benzamide bis-trifluoroacetate], the half-maximal inhibitory concentration (IC50) was 11 nM in test [1] and above 10000 nM in test [2]. The matching figures for `Cc1csc(NC(=O)[C@H]2CC[C@@H](n3cnc4c(N)nc(I)nc43)CC2)n1` [cpd 70, cis-4-(6-amino-2-iodo-9H-purin-9-yl)-N-(4-methyl-1,3-thiazol-2-yl)cyclohexanecarboxamide]: 34 nM and above 10000 nM. As to `CC1(C)Cc2nc(NC(=O)[C@H]3CC[C@@H](n4cnc5c(N)nc(F)nc54)CC3)sc2C(C)(C)N1` [cpd 190, cis-4-(6-amino-2-fluoro-9H-purin-9-yl)-N-(4,4,6,6-tetramethyl-4,5,6,7-tetrahydro[1,3]thiazolo[5,4-c]pyridin-2-yl)cyclohexanecarboxamide], the half-inhibitory concentration (IC50) in test [2] was above 10000 nM. With `Nc1nc(Cl)nc2c1ncn2[C@H]1CC[C@@H](C(=O)Nc2nc(CC(=O)N3CCC(N4CCCCC4)CC3)cs2)CC1` [cpd 86, cis-4-(6-amino-2-chloro-9H-purin-9-yl)-N-{4-[2-(1,4′-bipiperidin-1′-yl)-2-oxoethyl]-1,3-thiazol-2-yl}cyclohexanecarboxamide], the IC50 in test [1] was 52 nM; in test [2], above 10000 nM.

For the molecule `CC(=O)Nc1ccc2nc(NC(=O)[C@H]3CC[C@@H](n4cnc5c(N)nc(Cl)nc54)CC3)sc2c1` [cpd 183, cis-N-[6-(acetylamino)-1,3-benzothiazol-2-yl]-4-(6-amino-2-chloro-9H-purin-9-yl)cyclohexanecarboxamide], the IC50 in test [1] was found to be 17 nM; in test [2] it was 1990 nM. The matching figures for `CS(=O)(=O)c1ccc2nc(NC(=O)[C@H]3CC[C@@H](n4cnc5c(N)nc(Cl)nc54)CC3)sc2c1` [cpd 89, cis-4-(6-amino-2-chloro-9H-purin-9-yl)-N-[6-(methylsulfonyl)-1,3-benzothiazol-2-yl]cyclohexanecarboxamide]: 64 nM and 4160 nM. In the same order, the values of `COC(=O)[C@H]1CC[C@@H](n2cnc3c(N)nc(Cl)nc32)CC1` [cpd 88, methyl cis-4-(6-amino-2-chloro-9H-purin-9-yl)cyclohexanecarboxylate] are 524 nM and above 10000 nM. For the molecule `Cc1csc(NC(=O)[C@H]2CC[C@@H](n3cnc4c(N)nc(-c5cccc(C(N)=O)c5)nc43)CC2)n1` [cpd 96, 3-(6-amino-9-{cis-4-[(4-methyl-1,3-thiazol-2-yl)carbamoyl]cyclohexyl}-9H-purin-2-yl)benzamide], the IC50 was 274 nM in test [1] and above 10000 nM in test [2]. Consider `COc1cccc(NC(=O)[C@H]2CC[C@@H](n3cnc4c(N)nc(C#CCO)nc43)CC2)c1` [cpd 60, cis-4-[6-amino-2-(3-hydroxyprop-1-yn-1-yl)-9H-purin-9-yl]-N-(3-methoxyphenyl)cyclohexanecarboxamide], for which the IC50 in test [1] is 854 nM; in test [2] it was above 10000 nM.

For the molecule `Cc1csc(NC(=O)[C@H]2CC[C@@H](n3cnc4c(N)nc(C(F)(F)F)nc43)CC2)n1` [cpd 129, cis-4-[6-amino-2-(trifluoromethyl)-9H-purin-9-yl]-N-(4-methyl-1,3-thiazol-2-yl)cyclohexanecarboxamide], the 50% inhibitory concentration (IC50) in test [1] was 416 nM; in test [2], above 10000 nM.

In the case of `C#Cc1nc(N)c2ncn([C@H]3CC[C@@H](C(=O)Nc4cccc(OC)c4)CC3)c2n1` [cpd 45, cis-4-(6-amino-2-ethynyl-9H-purin-9-yl)-N-(3-methoxyphenyl)cyclohexanecarboxamide], the IC50 in test [1] amounted to 195 nM; in test [2] it was 4980 nM.

With `COc1cccc(NC(=O)[C@H]2CC[C@@H](n3cnc4c(N)nc(-c5cccc(C(=O)Nc6ccc(CN7CCN(C)CC7)cc6)c5)nc43)CC2)c1` [cpd 30, 3-(6-amino-9-{cis-4-[(3-methoxyphenyl)carbamoyl]cyclohexyl}-9H-purin-2-yl)-N-{4-[(4-methylpiperazin-1-yl)methyl]phenyl}benzamide], the half-maximal inhibitory concentration (IC50) was 305 nM in test [1] and above 10000 nM in test [2]. Take `NC(=O)CN1CCc2nc(NC(=O)[C@H]3CC[C@@H](n4cnc5c(N)nc(Cl)nc54)CC3)sc2C1` [cpd 196, cis-4-(6-amino-2-chloro-9H-purin-9-yl)-N-[5-(2-amino-2-oxoethyl)-4,5,6,7-tetrahydro[1,3]thiazolo[5,4-c]pyridin-2-yl]cyclohexanecarboxamide]: the IC50 in test [1] is 26 nM; in test [2], above 10000 nM. As for `COc1nc(N)c2ncn([C@H]3CC[C@@H](C(=O)Nc4nc5ccc(F)cc5s4)CC3)c2n1` [cpd 170, cis-4-(6-amino-2-methoxy-9H-purin-9-yl)-N-(6-fluoro-1,3-benzothiazol-2-yl)cyclohexanecarboxamide], the IC50 in test [1] was 54 nM; in test [2] it was above 10000 nM.

Turning to `Nc1nc(Cl)nc2c1ncn2[C@H]1CC[C@@H](C(=O)Nc2nc3c(s2)CN(C2CC2)CC3)CC1` [cpd 184, cis-4-(6-amino-2-chloro-9H-purin-9-yl)-N-(5-cyclopropyl-4,5,6,7-tetrahydro[1,3]thiazolo[5,4-c]pyridin-2-yl)cyclohexanecarboxamide], the IC50 in test [2] was determined as 6710 nM. Same read-out and setting: the value for `COc1cccc2sc(NC(=O)[C@H]3CC[C@@H](n4cnc5c(N)nc(Cl)nc54)CC3)nc12` [cpd 91, cis-4-(6-amino-2-chloro-9H-purin-9-yl)-N-(4-methoxy-1,3-benzothiazol-2-yl)cyclohexanecarboxamide] was 7380 nM. As for `COc1cccc(NC(=O)[C@H]2CC[C@@H](n3cnc4c(N)nc(-c5ccnc(OC)c5)nc43)CC2)c1` [cpd 21, cis-4-[6-amino-2-(2-methoxypyridin-4-yl)-9H-purin-9-yl]-N-(3-methoxyphenyl)cyclohexanecarboxamide], the half-inhibitory concentration (IC50) in test [1] was determined as 883 nM.

Regarding `COc1cccc(NC(=O)[C@H]2CC[C@@H](n3cnc4c(N)nc(-c5ccc(F)nc5)nc43)CC2)c1` [cpd 19, cis-4-[6-amino-2-(6-fluoropyridin-3-yl)-9H-purin-9-yl]-N-(3-methoxyphenyl)cyclohexanecarboxamide], the IC50 in test [1] was determined as 795 nM.

As to `COc1ccc2nc(NC(=O)[C@H]3CC[C@@H](n4cnc5c(N)nc(Cl)nc54)CC3)sc2c1` [cpd 92, cis-4-(6-amino-2-chloro-9H-purin-9-yl)-N-(6-methoxy-1,3-benzothiazol-2-yl)cyclohexanecarboxamide], the IC50 in test [2] is 5030 nM. As to `NC(=O)Cc1ccc2nc(NC(=O)[C@H]3CC[C@@H](n4cnc5c(N)nc(Cl)nc54)CC3)sc2c1` [cpd 177, cis-4-(6-amino-2-chloro-9H-purin-9-yl)-N-[6-(2-amino-2-oxoethyl)-1,3-benzothiazol-2-yl]cyclohexanecarboxamide], the 50% inhibitory concentration (IC50) in test [2] is 3810 nM. With `COc1cccc(NC(=O)[C@H]2CC[C@@H](n3cnc4c(N)nc(-c5ccncc5)nc43)CC2)c1` [cpd 9, cis-4-[6-amino-2-(pyridin-4-yl)-9H-purin-9-yl]-N-(3-methoxyphenyl)cyclohexanecarboxamide], the 50% inhibitory concentration (IC50) in test [2] was above 10000 nM.
